Reference: patent publication US20080207569A1, “Methods for the treatment of liver diseases” (priority 2007, published 2008)

Key:
[1] = tested on: Huh7 human hepatoma cell line (the 21-5 cell line); details: read-out: IC50 for cytotoxicity (concentration decreasing cell viability by 50%); 72 hr; host cell rRNA levels by TaqMan RT-PCR
Text: Cells were processed 72 hr later when the cells were still sub-confluent.

[2] = tested on: TNF-α/D-Galactosamine induced liver injury; experiment: TNF-α model of liver injury, 24 hour survival; assay type: in vivo, male C57B1/6 mice; details: TNF-α/D-Gln IP; average from 3 studies; p=0.03 vs control mice (27±7.3%)
Method: (§1) TNF-α is a cytokine that is implicated in inducing liver injury in a variety of acute and chronic liver diseases such as chronic HCV and acute liver failure. An exemplary in vivo model to test pharmacological agents against TNF-α induced injury is the TNF-α/D-Gal model of liver injury in mice. In this model, mice are treated with TNF-α/D-Gal and compound is administered to evaluate its ability to protect against liver damage. The compound is administered either before, at the time of or after the treatment with TNF-α/D-Gal, and followed for a period of approximately 6 hours. Allowing this model to persist past 6 hours is a variation used to determine the improved survival afforded by compound treatment.
(§2) In vivo efficacy of RO-113-0830 was assessed using male C57B1/6 mice (Simonsen Labs) in two well-established models of liver damage. The mice were allowed to acclimate for at least three days.
To determine a benefit on survival, TNF-α model, D-Galactosamine (D-Gln) (800 mg/kg) and TNF-α (20 or 40 μg/kg) were injected IP, and mice were allowed to survive for 24 hours post insult. All morbid mice were euthanized with 125 mg/kg of Nembutal IP. The average 24 hour survival from 3 studies was 27±7.3% and. 55±7.6% (p=0.03) in the TNFα/D-Gln control mice and RO-113-0830-treated mice, respectively.

[3] = tested on: full-length HCV replicon in Huh7 human hepatoma cell line (21-5); experiment: HCV RNA replicon antiviral evaluation assay; assay type: cell-based, hepatitis C virus; details: 72 hr; HCV RNA replicon levels by TaqMan RT-PCR; read-out: EC50 (concentration inhibition virus replication by 50%)
Method: The assay was conducted as described by Pietschmann, T. et al., supra.
Human interferon alpha-2b was included in each run as a positive control compound. Subconfluent cultures of the ET line were plated out into 96-well plates that were dedicated for the analysis of cell numbers (cytotoxicity) or antiviral activity and the next day drugs were added to the appropriate wells. Cells were processed 72 hr later when the cells were still sub-confluent. HCV RNA replicon levels and the toxic concentration of drug that reduces cell numbers, as indicated by host cell ribosomal RNA (rRNA) levels, were assessed by TaqMan RT-PCR. The EC50 (concentration inhibition virus replication by 50%), IC50 (concentration decreasing cell viability by 50%) and SI50 (selective index: IC50/EC50) values were calculated.

[4] = tested on: TNF-α/D-Galactosamine induced liver injury; experiment: TNF-α model of liver injury (TNFα/D-Gln), plasma ALT activity; assay type: in vivo, male C57B1/6 mice
Method: as §1, with “Allowing this model to persist past 6 hours is a variation used to determine the improved survival afforded by compound treatment.” left out
Multiple outcome measures are used for this evaluation. […] The extent of liver damage can be graded by examining liver samples prepared and evaluated microscopically by trained observers. […] In certain embodiment, compounds described herein protect against TNF-α/D-Gal induced liver injury as determined by these parameters. In certain embodiment, compounds described herein protect against Fas induced liver injury as determined by these parameters. […]
In vivo efficacy of RO-113-0830 was assessed using male C57B1/6 mice (Simonsen Labs) in two well-established models of liver damage. […]
In the TNF-α model of liver injury, D-Galactosamine (D-Gln) (800 mg/kg) and TNFα (20 or 40 μg/kg) were injected IP. […] Plasma ALT activity was determined using a kit from Sigma-Aldrich.

Fas-induced liver damage = experiment: Fas driven model of liver damage (activating antibody Jo-2), plasma ALT activity; assay type: in vivo, male C57B1/6 mice; details: 10 mg/kg PO; six hours after Jo-2 IV; average of 2 studies, p<0.05 in each
Method: as §2
In a Fas driven model of liver damage, an activating antibody to Fas (Jo-2) was administered IV. Six hours later, animals were anesthetized with Nembutal (50 mg/kg IP), and blood was taken by cardiac puncture. Plasma ALT activity was determined using a kit from Sigma-Aldrich.

[5] = tested on: bile duct ligation (BDL) induced liver injury and hepatic fibrosis; experiment: Bile duct ligation model of liver fibrosis; assay type: in vivo, C57/BL6 wild-type mice; details: 10 mg/kg once a day by gavage
Method: The bile duct ligation model is a well characterized model of liver fibrosis. Briefly, C57/BL6 wild-type mice 6 to 8 weeks of age were subjected to bile duct ligation (BDL) for 14 days. Sham-operated wild type mice were used as controls. Either RO 113-0830 or CMC (carboxymethylcellulose) were administered by gavage in a dose of 10 mg/kg body weight once a day. Hepatocyte apoptosis was quantified by the TUNEL assay and immunofluorescence for activated caspases 3/7. Liver injury was assessed by histopathology, and quantification of bile infarcts. Hepatic fibrosis was assessed by Sirius red staining and quantitative morphometry. Real-time polymerase chain reaction (PCR) was used to measure mRNA transcripts for collagen 1 alpha (I) and alpha-smooth muscle actin.

O=C(NO)C1(CS(=O)(=O)c2ccc(Oc3ccc(Cl)cc3)cc2)CCOCC1 [RO-113-0830]
IC50 [1]: ~25 µM
24 hour survival [2]: 55±7.6%
EC50 [3]: 0.07 µM
plasma ALT activity, effect in words ([4]; 0.001-30 mg/kg PO 30 minutes before insult, six hours): dose-dependently decreased plasma ALT activity
ED50 for decrease of plasma ALT activity ([4]; PO by gavage 30 minutes before TNFα/D-Gln insult, ALT six hours later, average from 4 studies): 0.26 ± 0.08 mg/kg
reduction of Fas-induced elevation in plasma ALT activity (Fas-induced liver damage): 50%
reduction of Sirius red staining of hepatic collagen ([5]; 14 days of BDL): 3 fold
reduction in the number of bile infarcts vs vehicle ([5]; 14 days of BDL, histologic examination): > 70%
decrease in TUNEL-positive hepatocytes vs vehicle ([5]; 14 days of BDL, p<0.01): 3 fold
decrease in caspase 3/7-positive hepatocytes vs vehicle ([5]; 14 days of BDL, p<0.01): 5 fold
reduction of hepatic mRNA for alpha-smooth muscle actin vs vehicle ([5]; 14 days of BDL, real-time PCR): > 60%
reduction of hepatic mRNA for collagen I vs vehicle ([5]; 14 days of BDL, real-time PCR): > 60%
overall animal survival following 14 days of BDL ([5]; p<0.05): significantly enhanced
